Laboratory results published in ChEMBL document CHEMBL4184215, “Lysosomes-targeting imaging and anticancer properties of novel bis-naphthalimide derivatives” (Bioorg Med Chem Lett, 2018).
Active and inactive are the calls of the source. No cut-off for these calls is given here.

Key:
MCF7 = assay: Cytotoxicity against human MCF7 cells assessed as reduction in cell viability incubated for 48 hrs by MTT assay; type: functional, cell-based; settings: MCF7, 48 h
MGC-803 = assay: Cytotoxicity against human MGC803 cells assessed as reduction in cell viability incubated for 48 hrs by MTT assay; type: functional, cell-based; settings: MGC-803, 48 h
HeLa [1] = assay: Cytotoxicity against human HeLa cells assessed as reduction in cell viability incubated for 48 hrs by MTT assay; type: functional, cell-based
A549 = assay: Cytotoxicity against human A549 cells assessed as reduction in cell viability incubated for 48 hrs by MTT assay; type: functional, cell-based; settings: A549, 48 h
Calf thymus DNA [2] = assay: Binding affinity to calf thymus DNA at 1 x 10^-5 M by UV-Visible spectroscopy; type: nucleic-acid assay; settings: Bos taurus
HeLa [3] = assay: Cell cycle arrest in human HeLa cells assessed as accumulation at S phase at 5 uM incubated for 12 hrs by propidium iodide staining based flow cytometry (reference value: 27.8%); type: functional
HeLa [4] = assay: Cell cycle arrest in human HeLa cells assessed as accumulation at G2 phase at 2.5 uM incubated for 12 hrs by propidium iodide staining based flow cytometry (reference value: 7%); type: functional
HeLa [5] = assay: Cell cycle arrest in human HeLa cells assessed as accumulation at G1 phase at 7.5 uM incubated for 12 hrs by propidium iodide staining based flow cytometry (reference value: 65.2%); type: functional
Calf thymus DNA [6] = assay: Binding affinity to calf thymus DNA assessed as increase in intensity of positive band at 275 nm at 8 uM to 40 uM by CD spectroscopy; type: nucleic-acid assay; settings: Bos taurus
Calf thymus DNA [7] = assay: Binding affinity to calf thymus DNA assessed as change in melting temperature at 5 uM; type: nucleic-acid assay; settings: Bos taurus
HeLa [8] = assay: Cell cycle arrest in human HeLa cells assessed as accumulation at G1 phase at 5 uM incubated for 12 hrs by propidium iodide staining based flow cytometry (reference value: 65.2%); type: functional
HeLa [9] = assay: Cell cycle arrest in human HeLa cells assessed as accumulation at S phase at 2.5 uM incubated for 12 hrs by propidium iodide staining based flow cytometry (reference value: 27.8%); type: functional
Calf thymus DNA [10] = assay: Binding affinity to calf thymus DNA assessed as induction of bathochromic shift of maximum absorption peaks at 1 x 10^-5 M by UV-Visible spectroscopy (reference value: 426 nanometer); type: nucleic-acid assay; settings: Bos taurus
Calf thymus DNA [11] = assay: Binding affinity to calf thymus DNA assessed as induction of ICD signal changes at 8 uM to 40 uM by CD spectroscopy; type: nucleic-acid assay; settings: Bos taurus
Calf thymus DNA [12] = assay: Binding affinity to calf thymus DNA assessed as reduction in compound self absorption intensity at 1 x 10^-5 M by UV-Visible spectroscopy; type: nucleic-acid assay; settings: Bos taurus
Calf thymus DNA [13] = assay: Binding affinity to calf thymus DNA assessed as increase in […] shift at 1 x 10^-5 M by fluorescence spectroscopy (reference value: 542 nanometer); type: nucleic-acid assay; settings: Bos taurus
HeLa [14] = assay: Cell cycle arrest in human HeLa cells assessed as accumulation at G2 phase at 5 uM incubated for 12 hrs by propidium iodide staining based flow cytometry (reference value: 7%); type: functional
HeLa [15] = assay: Cell cycle arrest in human HeLa cells assessed as accumulation at G1 phase at 2.5 uM incubated for 12 hrs by propidium iodide staining based flow cytometry (reference value: 65.2%); type: functional
Calf thymus DNA [16] = assay: Binding affinity to calf thymus DNA assessed as increase in compound fluorescence intensity at 1 x 10^-5 M up to 1.4 x 10^-4M DNA by fluorescence spectroscopy; type: nucleic-acid assay; settings: Bos taurus
HeLa [17] = assay: Cell cycle arrest in human HeLa cells assessed as accumulation at G2 phase at 7.5 uM incubated for 12 hrs by propidium iodide staining based flow cytometry (reference value: 7%); type: functional
[18] = Drug accumulation in lysosome of human HeLa cells at 5 uM incubated for 1 hr by lysososmal tracker DND-99 based confocal microscopy; type: ADME, subcellular
HeLa [19] = assay: Cell cycle arrest in human HeLa cells assessed as accumulation at S phase at 7.5 uM incubated for 12 hrs by propidium iodide staining based flow cytometry (reference value: 27.8%); type: functional
Calf thymus DNA [20] = assay: Binding affinity to calf thymus DNA assessed as increase in compound fluorescence intensity at 1 x 10^-5 M by fluorescence spectroscopy; type: nucleic-acid assay; settings: Bos taurus
Calf thymus DNA [21] = assay: Binding affinity to calf thymus DNA assessed as induction of maximum emission band shift at 1 x 10^-5 M by fluorescence spectroscopy; type: nucleic-acid assay; settings: Bos taurus

Compound	IC50 (MCF7)	IC50 (MGC-803)	IC50 (HeLa [1])	IC50 (A549)	other results
CN(C)CCN1C(=O)c2cccc3cc(N)cc(c23)C1=O [AMONAFIDE]	6.79 µM	3.23 µM	3.41 µM	2 µM	–
Cl.Cl.Cl.Cl.O=C1c2cccc3c(N4CCN(CCO)CC4)ccc(c23)C(=O)N1CCCNCCNCCCN1C(=O)c2cccc3c(N4CCN(CCO)CC4)ccc(c23)C1=O	20 µM	1.6 µM	2.73 µM	2.59 µM	K (Calf thymus DNA [2]): 2.6 ×10⁵ /M; Activity (HeLa [3]): 49.7%; Activity (HeLa [4]): 10.9%; Activity (HeLa [5]): 42.6%; Activity (Calf thymus DNA [6]): Active; ΔTm (Calf thymus DNA [7]): 14.3 °C; Activity (HeLa [8]): 46%; Activity (HeLa [9]): 40.2%; Activity (Calf thymus DNA [10]): inactive; Activity (Calf thymus DNA [11]): Active; Activity (Calf thymus DNA [12]): Active; Activity (Calf thymus DNA [13]): 528 nm; Activity (HeLa [14]): 4.3%; Activity (HeLa [15]): 48.9%; Activity (Calf thymus DNA [16]): Active; Activity (HeLa [17]): 3.7%; Drug uptake [18]: Active; Activity (HeLa [19]): 53.87%
O=C1c2cccc3c(N4CCC[C@H]4CO)ccc(c23)C(=O)N1CCCNCCNCCCN1C(=O)c2cccc3c(N4CCC[C@H]4CO)ccc(c23)C1=O	147 µM	35.1 µM	85.2 µM	472 µM	–
O=C1c2cccc3c(N4CCC[C@@H]4CO)ccc(c23)C(=O)N1CCCNCCNCCCN1C(=O)c2cccc3c(N4CCC[C@@H]4CO)ccc(c23)C1=O	93.5 µM	6.41 µM	89.2 µM	72.6 µM	–
O=C1c2cccc3c(N4CCC(CCO)CC4)ccc(c23)C(=O)N1CCCNCCNCCCN1C(=O)c2cccc3c(N4CCC(CCO)CC4)ccc(c23)C1=O	11.1 µM	90.4 µM	6.88 µM	43.5 µM	–
O=C1c2cccc3c(N4CC[C@@H](O)C4)ccc(c23)C(=O)N1CCCNCCNCCCN1C(=O)c2cccc3c(N4CC[C@@H](O)C4)ccc(c23)C1=O	74.6 µM	9.41 µM	45.4 µM	23 µM	–
O=C1c2cccc3c(N4CCC(CO)CC4)ccc(c23)C(=O)N1CCCNCCNCCCN1C(=O)c2cccc3c(N4CCC(CO)CC4)ccc(c23)C1=O	22.7 µM	2.03 µM	4.03 µM	14 µM	–
Cl.Cl.Cl.Cl.O=C1c2cccc3c(N4CCC(O)CC4)ccc(c23)C(=O)N1CCCNCCNCCCN1C(=O)c2cccc3c(N4CCC(O)CC4)ccc(c23)C1=O	37.1 µM	0.6 µM	2.89 µM	46.2 µM	Activity (Calf thymus DNA [20]): Active; K (Calf thymus DNA [2]): 1.8 ×10⁵ /M; Activity (HeLa [3]): 45.2%; Activity (Calf thymus DNA [21]): inactive; Activity (HeLa [4]): 11.7%; Activity (HeLa [5]): 44.3%; Activity (Calf thymus DNA [6]): Active; ΔTm (Calf thymus DNA [7]): 8.2 °C; Activity (HeLa [8]): 44.9%; Activity (HeLa [9]): 40.8%; Activity (Calf thymus DNA [10]): 445 nm; Activity (Calf thymus DNA [11]): Active; Activity (Calf thymus DNA [12]): Active; Activity (HeLa [14]): 9.9%; Activity (HeLa [15]): 47.5%; Activity (HeLa [17]): 5.3%; Drug uptake [18]: Active; Activity (HeLa [19]): 50.4%
O=C1c2cccc3c(N4CC[C@H](O)C4)ccc(c23)C(=O)N1CCCNCCNCCCN1C(=O)c2cccc3c(N4CC[C@H](O)C4)ccc(c23)C1=O	142 µM	5.96 µM	35.4 µM	83.6 µM	–
